Assay results from patent publication EP0341661A2, “Peptide-drug compositions containing alpha-aminoboronic acid derivatives” (THE DU PONT MERCK PHARMACEUTICAL COMPANY, priority 1988, dated 1989).
Counter-ions that a name gives are not always drawn.

System: aminopeptidases
Assay: In situ nasal perfusion: degradation of 100 µM leucine enkephalin in the nasal perfusate
Format: in vivo, Sprague-Dawley rats
Conditions: for % Leucine Enkephalin Remaining: 0.1 µM inhibitor
Description: In order to evaluate the effectiveness of the α-aminoboronic acid derivative inhibitors of this invention, an animal model was used (according to A. Hussain, J. Furaj, A. Yukihiko and J. E. Truelove, Biochem. Biophys. Res. Com. 133, 923, 1985) to assess the degradation of proteins and peptides in situ and in vivo in situ in the nasal cavity of rats. The method involved the use of Sprague-Dawley rats weighing approximately 300 grams. Each rat was anesthetized with sodium pentobarbitol (50 mg/kg). An incision was made in the neck and the trachea was canulated with PE 240 tubing. For the in situ studies, a second tube, which served to introduce the perfusing solution, was inserted through the esophagus to the posterior part of the nasal cavity. The nasopalatine was closed with an adhesive to prevent drainage of the perfusing solution from the nasal to the oral cavity. For the in vivo in situ studies, the esophagus was canulated using PE 240 tubing closed at one end. The closed end was pushed to the posterior end of the nasal passage and then tied in place. The nasopalatine was closed with an adhesive to prevent drainage of the perfusing solution from the nasal to the oral cavity. The rats were dosed in one nostril with 50 µl of peptide solution in two forms; the control solution had no inhibitor added, the test solution had inhibitor added at concentrations specified in the examples shown below. The dosing solution was 0.1 M phosphate buffer (pH 7.4). At certain time intervals (one rat/time interval), the drug was washed from the nose via the other nostril with 10 ml of 0.1 M phosphate buffer (pH 3.8) using a peristaltic pump. The nasal washing was then placed in a 10 ml volumetric flask and adjusted to 10 ml with the same buffer and analyzed for the peptide by HPLC. The analysis of leucine enkephalin and its major metabolite involved taking aliquots of samples, diluting them with 200 µl of 0.1 M citric acid (pH 2.3) to quench hydrolysis and subjecting the samples to analysis (for in vivo in situ studies, the washings were injected as they were obtained). High Pressure Liquid Chromatography (HPLC) was run on a 4.6 x 250 mm C₈ column. The mobile phase consisted of 0.1 M NaH₂PO₄-H₃PO₄-acetonitrile (916 : 5 : 275) and was delivered at a flow rate of 1.7 ml/min. Detection was by UV at 210 nm. Retention times for leucine enkephalin and its major degradation product, Des-Tyr-leucine enkephalin were 7.3 and 4.8 min., respectively. Data were calculated as % of leucine enkephalin remaining in the nasal perfusate as a function of time, counting the concentration at zero time as 100%. In this example, a 10 ml solution of 0.1 M phosphate buffer solution (pH 7.4) containing 100 µM leucine enkephalin (the peptide) in the absence or presence of 0.1 µM 3-methyl-1(4,4,5,5-tetramethyl-1,3,2-dioxaborolane-2-yl)-1-butamine, trifluoroacetic acid salt (boroleucine) as the inhibitor was perfused nasally in rats as described above. A 10 ml portion of the peptide solution was placed in a water-jacketed container, maintained at 37°C and circulated through the nasal cavity of rats using a peristaltic pump. The perfusing solution was passed through the nasal cavity, out the nostrils, through a funnel, and returned to the water-jacketed container. The perfusate was analyzed by the ANALYTICAL METHOD described above.

## CC(C)CC(N)B1OC(C)(C)C(C)(C)O1 (centres unmarked) [boroleucine, 3-methyl-1(4,4,5,5-tetramethyl-1,3,2-dioxaborolane-2-yl)-1-butamine, trifluoroacetic acid salt]
0.01 µM Boroleucine (title: 0.1 µM), 0 min
  % of leucine enkephalin remaining in the nasal perfusate: 100.0±0.0%
0.01 µM Boroleucine (title: 0.1 µM), 5 min
  % of leucine enkephalin remaining in the nasal perfusate: 96.6±1.5%
0.01 µM Boroleucine (title: 0.1 µM), 10 min
  % of leucine enkephalin remaining in the nasal perfusate: 93.5±3.0%
0.01 µM Boroleucine (title: 0.1 µM), 20 min
  % of leucine enkephalin remaining in the nasal perfusate: 96.4±1.7%
0.01 µM Boroleucine (title: 0.1 µM), 30 min
  % of leucine enkephalin remaining in the nasal perfusate: 92.7±3.3%
0.01 µM Boroleucine (title: 0.1 µM), 45 min
  % of leucine enkephalin remaining in the nasal perfusate: 91.8±2.5%
0.01 µM Boroleucine (title: 0.1 µM), 90 min
  % of leucine enkephalin remaining in the nasal perfusate: 85.7±3.5%
0.01 µM inhibitor, 0 min
  % of leucine enkephalin remaining in the nasal perfusate: 100.0±0.0%
0.01 µM inhibitor, 10 min
  % of leucine enkephalin remaining in the nasal perfusate: 90.6±3.5%
0.01 µM inhibitor, 20 min
  % of leucine enkephalin remaining in the nasal perfusate: 89.1±5.3%
0.01 µM inhibitor, 30 min
  % of leucine enkephalin remaining in the nasal perfusate: 79.1±2.9%
0.01 µM inhibitor, 45 min
  % of leucine enkephalin remaining in the nasal perfusate: 74.9±2.8%
0.01 µM inhibitor, 60 min
  % of leucine enkephalin remaining in the nasal perfusate: 69.2±2.0%
0.01 µM inhibitor, 90 min
  % of leucine enkephalin remaining in the nasal perfusate: 56.2±1.6%
0.03 µM inhibitor, 0 min
  % of leucine enkephalin remaining in the nasal perfusate: 100.0±0.0%
0.03 µM inhibitor, 5 min
  % of leucine enkephalin remaining in the nasal perfusate: 94.1±1.7%
0.03 µM inhibitor, 10 min
  % of leucine enkephalin remaining in the nasal perfusate: 93.6±1.6%
0.03 µM inhibitor, 20 min
  % of leucine enkephalin remaining in the nasal perfusate: 91.8±2.2%
0.03 µM inhibitor, 30 min
  % of leucine enkephalin remaining in the nasal perfusate: 88.3±1.4%
0.03 µM inhibitor, 45 min
  % of leucine enkephalin remaining in the nasal perfusate: 85.7±1.3%
0.03 µM inhibitor, 60 min
  % of leucine enkephalin remaining in the nasal perfusate: 81.5±1.4%
0.03 µM inhibitor, 90 min
  % of leucine enkephalin remaining in the nasal perfusate: 72.9±1.0%
0.1 µM boroleucine, 10 µM bestatin, 100 µM puromycin
  order of inhibition of degradation: boroleucine> bestatin> puromycin
0 min
  % Leucine Enkephalin Remaining: 100.0±0.0%
5 min
  % Leucine Enkephalin Remaining: 96.6±1.5%
10 min
  % Leucine Enkephalin Remaining: 93.5±3.0%
20 min
  % Leucine Enkephalin Remaining: 96.4±1.7%
30 min
  % Leucine Enkephalin Remaining: 92.7±3.3%
45 min
  % Leucine Enkephalin Remaining: 91.8±2.5%
60 min
  % Leucine Enkephalin Remaining: 88.8±2.6%
90 min
  % Leucine Enkephalin Remaining: 85.6±3.5%
0.1 µM of each inhibitor
  comparison of the inhibitory effect of equimolar concentrations: superior to boroalanine
